# Results published in US20260347335A1, “PESTICIDALLY ACTIVE CYCLIC AMINE COMPOUNDS” (SYNGENTA CROP PROTECTION AG, priority 2022, published 2026).
# Tested on: Tetranychus urticae (Two-Spotted Spider Mite)
# Assay: Example B1: Tetranychus urticae (Two-Spotted Spider Mite): Feeding/Contact Activity
# Format: in vivo
# Conditions: foliar, 192 h, application rate of 200 ppm, 8 days after infestation, bean leaf discs on agar, mites of mixed ages, read-out: mortality on mixed population (mobile stages)
# Experimental: Example B1: Tetranychus urticae (Two-Spotted Spider Mite): Feeding/Contact Activity
# Bean leaf discs on agar in 24-well microtiter plates were sprayed with aqueous test solutions prepared from 10,000 ppm DMSO stock solutions. After drying the leaf discs were infested with a mite population of mixed ages. The samples were assessed for mortality on mixed population (mobile stages) 8 days after infestation.
row,SMILES,mortality at 200 ppm
1,"CC(C)(NS(C)(=O)=O)C1CCN(C(=O)c2cc(C#N)c(OCc3ccc4c(c3)OC(F)(F)O4)nc2C(F)F)CC1 [Compound P1.1, N-[1-[1-[5-cyano-6-[(2,2-difluoro-1,3-benzodioxol-5-yl)methoxy]-2-(difluoromethyl)pyridine-3-carbonyl]-4-piperidyl]-1-methyl-ethyl]methanesulfonamide]",≥ 80%
2,"CC(=O)NC1(C2CCN(C(=O)c3cc(C#N)c(OCc4ccc5c(c4)OC(F)(F)O5)nc3C(F)F)CC2)CC1 [Compound P1.6, N-[1-[1-[5-cyano-6-[(2,2-difluoro-1,3-benzodioxol-5-yl)methoxy]-2-(difluoromethyl)pyridine-3-carbonyl]-4-piperidyl]cyclopropyl]acetamide]",≥ 80%
3,"CC(=O)NC1(C2CCN(C(=O)c3cc(C#N)c(OCc4cc(Cl)ccc4F)nc3C(F)F)CC2)CC1 [Compound P1.18, N-[1-[1-[6-[(5-chloro-2-fluoro-phenyl)methoxy]-5-cyano-2-(difluoromethyl)pyridine-3-carbonyl]-4-piperidyl]cyclopropyl]acetamide]",≥ 80%
